From ChEMBL document CHEMBL3044672, “N9- and N7-(Chloromethyl Phenymethyl)Chloropurine Derivatives from , '-Dichloroxylenes: Synthesis and Anticancer Activity” (2005)

Legend:
Format in all cases: functional
HT-29 = experiment: Cytotoxicity against Homo sapiens (human) HT-29 cells after 48 hr by sulforhodamine B assay; details: HT-29, 48 h
NCI-H460 [1] = experiment: Cytotoxicity against Homo sapiens (human) NCI-H460 cells assessed as cell growth at 10^-4 M after 48 hr by Alamar blue assay; details: NCI-H460, 48 h, read-out: Activity
MCF7 [2] = experiment: Cytotoxicity against Homo sapiens (human) MCF7 cells assessed as cell growth at 10^-4 M after 48 hr by Alamar blue assay; details: MCF7, 48 h, read-out: Activity
IGROV-1 = experiment: Cytotoxicity against Homo sapiens (human) IGROV1 cells after 48 hr by sulforhodamine B assay; details: IGROV-1, 48 h
MCF7 [3] = experiment: Cytotoxicity against Homo sapiens (human) MCF7 cells after 48 hr by sulforhodamine B assay; details: MCF7, 48 h
UO-31 = experiment: Cytotoxicity against Homo sapiens (human) UO31 cells after 48 hr by sulforhodamine B assay; details: UO-31, 48 h
T47D = experiment: Cytotoxicity against Homo sapiens (human) T47D cells after 48 hr by sulforhodamine B assay
U-251 = experiment: Cytotoxicity against Homo sapiens (human) U251 cells after 48 hr by sulforhodamine B assay; details: U-251, 48 h
PC-3 = experiment: Cytotoxicity against Homo sapiens (human) PC3 cells after 48 hr by sulforhodamine B assay; details: PC-3, 48 h
A498 = experiment: Cytotoxicity against Homo sapiens (human) A498 cells after 48 hr by sulforhodamine B assay; details: A498, 48 h
MDA-MB-435 = experiment: Cytotoxicity against Homo sapiens (human) MDA-MB-435 cells after 48 hr by sulforhodamine B assay; details: MDA-MB-435, 48 h
NCI-H23 = experiment: Cytotoxicity against Homo sapiens (human) NCI-H23 cells after 48 hr by sulforhodamine B assay; details: NCI-H23, 48 h
M14 = experiment: Cytotoxicity against Homo sapiens (human) M14 cells after 48 hr by sulforhodamine B assay; details: M14, 48 h
HOP-92 = experiment: Cytotoxicity against Homo sapiens (human) HOP92 cells after 48 hr by sulforhodamine B assay; details: HOP-92, 48 h
UACC-257 = experiment: Cytotoxicity against Homo sapiens (human) UACC257 cells after 48 hr by sulforhodamine B assay; details: UACC-257, 48 h
A549 = experiment: Cytotoxicity against Homo sapiens (human) A549 cells after 48 hr by sulforhodamine B assay; details: A549, 48 h
Hs-578T = experiment: Cytotoxicity against Homo sapiens (human) Hs 578T cells after 48 hr by sulforhodamine B assay
SK-MEL-5 = experiment: Cytotoxicity against Homo sapiens (human) SK-MEL-5 cells after 48 hr by sulforhodamine B assay; details: SK-MEL-5, 48 h
KM12 = experiment: Cytotoxicity against Homo sapiens (human) KM12 cells after 48 hr by sulforhodamine B assay; details: KM12, 48 h
NCI-H226 = experiment: Cytotoxicity against Homo sapiens (human) NCI-H226 cells after 48 hr by sulforhodamine B assay; details: NCI-H226, 48 h
NCI-H460 [4] = experiment: Cytotoxicity against Homo sapiens (human) NCI-H460 cells after 48 hr by sulforhodamine B assay; details: NCI-H460, 48 h
TK-10 = experiment: Cytotoxicity against Homo sapiens (human) TK10 cells after 48 hr by sulforhodamine B assay; details: TK-10, 48 h
RPMI-8226 = experiment: Cytotoxicity against Homo sapiens (human) RPMI8226 cells after 48 hr by sulforhodamine B assay; details: RPMI-8226, 48 h
[5] = Cytotoxicity against Homo sapiens (human) NCI-ADR-RES cells after 48 hr by sulforhodamine B assay
SN12C = experiment: Cytotoxicity against Homo sapiens (human) SN12C cells after 48 hr by sulforhodamine B assay
K562 = experiment: Cytotoxicity against Homo sapiens (human) K562 cells after 48 hr by sulforhodamine B assay; details: K562, 48 h
HCC 2998 = experiment: Cytotoxicity against Homo sapiens (human) HCC2998 cells after 48 hr by sulforhodamine B assay; details: HCC 2998, 48 h
[6] = read-out: LC50 (the source's name)

For `ClCc1ccc(Cn2cnc3ncnc(Cl)c32)cc1`, the GI50 (HT-29) was 1.23 µM, the TGI (HT-29) was 3.63 µM and the CC50 (HT-29; [6]) was 56.2 µM. The growth at 100 µM (NCI-H460 [1]) was 0%, the growth at 100 µM (MCF7 [2]) was 23% and the GI50 (IGROV-1) was 7.58 µM. The LC50 (IGROV-1) was > 100 µM, the TGI (IGROV-1) was 30.9 µM and the GI50 (MCF7 [3]) was 1.34 µM. For the same compound, the LC50 (concentration killing 50% of cells) (MCF7 [3]) was 6.45 µM, the TGI (MCF7 [3]) was 2.95 µM and the GI50 (UO-31) was 4.78 µM. For the same compound, the LC50 (concentration causing 50% net cell kill) (UO-31) was > 100 µM, the TGI (UO-31) was 66.1 µM and the GI50 (T47D) was 1.28 µM. It also gave an LC50 (T47D) of 6.3 µM, a TGI (T47D) of 2.88 µM and a GI50 (U-251) of 1.09 µM. The LC50 (concentration killing 50% of cells) (U-251) was 4.78 µM, the TGI (U-251) was 2.29 µM and the GI50 (PC-3) was 1.58 µM. It also gave an LC50 (concentration causing 50% cell kill) (PC-3) of 5.37 µM, a TGI (PC-3) of 2.95 µM and a GI50 (A498) of 1.81 µM. For the same compound, the LC50 (lethal concentration, 50% cell kill) (A498) was 6.3 µM, the TGI (A498) was 3.38 µM and the GI50 (MDA-MB-435) was 5.88 µM. For the same compound, the LC50 (MDA-MB-435) was 46.8 µM, the TGI (MDA-MB-435) was 19.1 µM and the GI50 (NCI-H23) was 15.8 µM. The TGI (NCI-H23) was 30.9 µM, the CC50 (NCI-H23; [6]) was 58.9 µM and the GI50 (M14) was 2.75 µM. The LC50 (M14) was 37.1 µM, the TGI (M14) was 13.2 µM and the GI50 (HOP-92) was 1.17 µM. It also gave a TGI (HOP-92) of 2.51 µM, a CC50 (HOP-92; [6]) of 5.49 µM and a GI50 (UACC-257) of 1.58 µM. It also gave an LC50 (concentration killing 50% of cells) (UACC-257) of 7.76 µM, a TGI (UACC-257) of 3.46 µM and a GI50 (A549) of 1.81 µM. The TGI (A549) was 4.16 µM, the CC50 (A549; [6]) was 9.33 µM and the GI50 (Hs-578T) was 1.73 µM. For the same compound, the LC50 (Hs-578T) was > 100 µM, the TGI (Hs-578T) was 4.26 µM and the GI50 (SK-MEL-5) was 2.81 µM. The LC50 (SK-MEL-5) was 34.7 µM, the TGI (SK-MEL-5) was 12 µM and the GI50 (KM12) was 1.65 µM. The TGI (KM12) was 3.38 µM, the CC50 (KM12; [6]) was 7.07 µM and the GI50 (NCI-H226) was 3.01 µM. It also gave a TGI (NCI-H226) of 12 µM, a CC50 (NCI-H226; [6]) of 37.1 µM and a GI50 (NCI-H460 [4]) of 1.77 µM. It also gave a TGI (NCI-H460 [4]) of 4.26 µM, a CC50 (NCI-H460 [4]; [6]) of 17.4 µM and a GI50 (TK-10) of 1.47 µM. For the same compound, the TGI (TK-10) was 2.95 µM, the CC50 (TK-10; [6]) was 5.75 µM and the GI50 (RPMI-8226) was 1.28 µM. It also gave a TGI (RPMI-8226) of 2.69 µM, a CC50 (RPMI-8226; [6]) of 5.62 µM and a GI50 [5] of 1.81 µM. The LC50 (concentration killing 50% of cells) [5] was 15.5 µM, the TGI [5] was 4.67 µM and the GI50 (SN12C) was 3.63 µM. The LC50 (50% lethal concentration) (SN12C) was 40.7 µM, the TGI (SN12C) was 14.8 µM and the GI50 (K562) was 3.01 µM. The TGI (K562) was > 100 µM, the CC50 (K562; [6]) was > 100 µM and the GI50 (HCC 2998) was 1.41 µM. The TGI (HCC 2998) was 2.88 µM and the CC50 (HCC 2998; [6]) was 5.75 µM.
